According to patent US9149038B2, “4-amino-6-(heterocyclic)picolinates and 6-amino-2-(heterocyclic)pyrimidine-4-carboxylates and their use as herbicides” (Dow AgroSciences LLC, priority 2013, dated 2015):
Where two headings read alike, the source gives them in different places.

Assays:
[1] = tested on: Key Grass and Sedge Weeds as well as Grass Crops; assay: Post-Emergent Test II: postemergent herbicidal activity, visual rating after 14 d (Table 8); format: in vivo; conditions: post-emergence, 336 h; for pest or weed control at 35 g/ha: 35 g ai/ha; for pest or weed control at 70 g/ha: 70 g ai/ha; for pest or weed control at 140 g/ha: 140 g ai/ha
In short: (§1)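 Visual scoring at 14 d, 0 (no injury) to 100 (complete kill), relative to untreated plants. Postemergent overhead track-sprayer application, 187 L/ha, at a top rate plus serial ½×–1/16× rates, to plants grown 7–21 d at about 23–29° C day under a 15 h photoperiod, then subirrigated.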

[2] = tested on: Key Broadleaf Weed and Crop Species; assay: Post-Emergent Test II: postemergent herbicidal activity, visual rating after 14 d (Table 7); format: in vivo; conditions: post-emergence, 336 h; for pest or weed control at 35 g/ha: 35 g ai/ha; for pest or weed control at 70 g/ha: 70 g ai/ha; for pest or weed control at 140 g/ha: 140 g ai/ha
In short: as §1

[3] = barnyardgrass (Echinochloa crus-galli), read-out: Visual Growth Reduction (%) 14 Days After Application ECHCG
[4] = giant foxtail (Setaria faberi), read-out: Visual Growth Reduction (%) 14 Days After Application SETFA
[5] = maize, corn (Zea mays), read-out: Visual Growth Reduction (%) 14 Days After Application ZEAMX
[6] = rice (Oryza sativa), read-out: Visual Growth Reduction (%) 14 Days After Application ORYSA
[7] = wheat, spring (Triticum aestivum), read-out: Visual Growth Reduction (%) 14 Days After Application TRZAS
[8] = yellow nutsedge (Cyperus esculentus), read-out: Visual Growth Reduction (%) 14 Days After Application CYPES
[9] = lambsquarters (Chenopodium album), read-out: Visual Growth Reduction (%) 14 Days After Application CHEAL
[10] = oilseed rape, canola (Brassica napus), read-out: Visual Growth Reduction (%) 14 Days After Application BRSNN
[11] = redroot pigweed (Amaranthus retroflexus), read-out: Visual Growth Reduction (%) 14 Days After Application AMARE
[12] = sunflower (Helianthus annuus), read-out: Visual Growth Reduction (%) 14 Days After Application HELAN
[13] = velvetleaf (Abutilon theophrasti), read-out: Visual Growth Reduction (%) 14 Days After Application ABUTH
[14] = wild poinsettia (Euphorbia heterophylla), read-out: Visual Growth Reduction (%) 14 Days After Application EPHHL

Compound: Nc1nc(-c2ccc3c(c2F)OC(F)(F)O3)nc(C(=O)O)c1Cl [Compound 59]
- pest or weed control at 35 g/ha [1, 3]: 75 to 84%
- pest or weed control at 70 g/ha [1, 3]: 75 to 84%
- pest or weed control at 35 g/ha [1, 4]: 45 to 59%
- pest or weed control at 70 g/ha [1, 4]: 60 to 74%
- pest or weed control at 140 g/ha [1, 4]: 60 to 74%
- pest or weed control at 35 g/ha [1, 5]: 60 to 74%
- pest or weed control at 70 g/ha [1, 5]: 60 to 74%
- pest or weed control at 140 g/ha [1, 5]: 60 to 74%
- pest or weed control at 35 g/ha [1, 6]: 0 to 29%
- pest or weed control at 70 g/ha [1, 6]: 0 to 29%
- pest or weed control at 140 g/ha [1, 6]: 0 to 29%
- pest or weed control at 35 g/ha [1, 7]: 0 to 29%
- pest or weed control at 70 g/ha [1, 7]: 0 to 29%
- pest or weed control at 140 g/ha [1, 7]: 0 to 29%
- pest or weed control at 35 g/ha [1, 8]: 0 to 29%
- pest or weed control at 70 g/ha [1, 8]: 0 to 29%
- pest or weed control at 140 g/ha [1, 8]: 85 to 94%
- pest or weed control at 35 g/ha [2, 9]: 75 to 84%
- pest or weed control at 70 g/ha [2, 9]: 85 to 94%
- pest or weed control at 140 g/ha [2, 9]: 85 to 94%
- pest or weed control at 35 g/ha [2, 10]: 60 to 74%
- pest or weed control at 70 g/ha [2, 10]: 85 to 94%
- pest or weed control at 140 g/ha [2, 10]: 85 to 94%
- pest or weed control at 35 g/ha [2, 11]: 45 to 59%
- pest or weed control at 70 g/ha [2, 11]: 85 to 94%
- pest or weed control at 140 g/ha [2, 11]: 95 to 100%
- pest or weed control at 35 g/ha [2, 12]: 60 to 74%
- pest or weed control at 70 g/ha [2, 12]: 75 to 84%
- pest or weed control at 140 g/ha [2, 12]: 75 to 84%
- pest or weed control at 35 g/ha [2, 13]: 0 to 29%
- pest or weed control at 70 g/ha [2, 13]: 0 to 29%
- pest or weed control at 140 g/ha [2, 13]: 60 to 74%
- pest or weed control at 35 g/ha [2, 14]: 95 to 100%
- pest or weed control at 70 g/ha [2, 14]: 95 to 100%
- pest or weed control at 140 g/ha [2, 14]: 95 to 100%
